The subject of this test is translocation of STAT6(B) and LITAF in mouse macrophages. Put plainly: Western blot after kinase inhibitor pretreatment plus LPS stimulation (FIG. 13). Particulars: pretreatment before LPS stimulation. It counts as cell-based. The source says:
It is well known that STAT family members share two major domains, oligomerization and Src homology 2 (SH2), for phosphorylation by Janis kinases (Jaks) that facilitate dimerization of STAT proteins and subsequent translocation into the nucleus (Gallmeier, et al., J Cell Physiol, 203:209-216, 2005; Chen, et al., J Allergy Clin Immunol, 114:476-489, 2004, Tang, et al., PNAS USA, 102:5132-5137, 2005). […] In this Western blot, cells were pretreated with various kinase inhibitors (FIG. 13a) before LPS stimulation.

Take `C[S+]([O-])c1ccc(-c2nc(-c3ccncc3)c(-c3ccc(F)cc3)[nH]2)cc1` (stereo not drawn) [SB203580]: the “TNF-α protein levels compared to cells exposed to LPS only” value is listed as “suppression”. In addition, under “Western blot”, the “LITAF and STAT6(B) expression in the nucleus” value is given as “substantially reduced”; the “whole cell extract LITAF and STAT6(B) expression” value is “unchanged”.

Source of the values: patent US20090062190A1, “Transcriptional Regulation of Cytokines by LITAF and STAT (6)(B)” (priority 2005, published 2009).
